# Experimental data from the supplement of paper PMC4862054.
# Test system: MDA-MB-231
# Conditions: 72 h
# Procedure, shortened: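 Breast cancer cell lines in 20 µl suspension were added to 384-well plates already holding compound at 5 concentrations, spaced in 10-fold steps across a compound-specific 10,000-fold range, and incubated for 72 h. CellTox Green fluorescence (485/520 nm) was read first to measure cell death, followed by CellTiter-Glo luminescence for viability after 10 min at room temperature. Each plate was normalised to 0.1 % DMSO and a positive kill control. EC50 values came from dose-response curve fits and were censored at the top concentration.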
row,SMILES,"EC50, CellTox Green [nM]"
1,COC1=C2C[C@@H](C)C[C@H](OC)[C@H](O)[C@@H](C)/C=C(\C)[C@H](OC(N)=O)[C@@H](OC)/C=C\C=C(/C)C(=O)NC(=CC1=O)C2=O [Geldanamycin],4120
2,COC1=CC(c2cc3ccccc3[nH]2)=N/C1=C\c1[nH]c(C)cc1C [Obatoclax],760
3,COC(=O)C[C@](O)(CCCC(C)(C)O)C(=O)O[C@@H]1C(OC)=C[C@]23CCCN2CCc2cc4c(cc2[C@H]13)OCO4 [Omacetaxine],620
4,CC(=O)O[C@H]1C(=O)[C@@]2(C)[C@H]([C@H](OC(=O)c3ccccc3)[C@]3(O)C[C@H](OC(=O)[C@H](O)[C@@H](NC(=O)c4ccccc4)c4ccccc4)C(C)=C1C3(C)C)[C@]1(OC(C)=O)CO[C@@H]1C[C@@H]2O [Paclitaxel],8.57
5,Cn1c(=O)c(F)c(Nc2ccc(I)cc2F)c2c(=O)n(C[C@@H](O)CO)cnc21 [TAK-733],54.6
6,CCS(=O)(=O)c1cccc(-c2cc(C(=O)NC3CCN(C)CC3)c(C)c3[nH]c4ncc(C)cc4c23)c1 [TAK-901],184
7,Cc1cc(C(C)Nc2ccccc2)c2nc(N3CCOCC3)cc(=O)n2c1 (configuration not stated) [TGX-221],> 10000
